Measured values published in BindingDB's records for doi:10.1124/jpet.102.046318 (Georgetown University, 2003).

Assays:
[1] = target: Sodium-dependent dopamine transporter (Rattus norvegicus, UniProt P23977)
[2] = target: Norepinephrine transporter (Rattus norvegicus, UniProt Q9JIA2)
[3] = target: Sodium-dependent serotonin transporter (Rattus norvegicus, UniProt P31652)
Chain of Sodium-dependent serotonin transporter (P31652 whole entry): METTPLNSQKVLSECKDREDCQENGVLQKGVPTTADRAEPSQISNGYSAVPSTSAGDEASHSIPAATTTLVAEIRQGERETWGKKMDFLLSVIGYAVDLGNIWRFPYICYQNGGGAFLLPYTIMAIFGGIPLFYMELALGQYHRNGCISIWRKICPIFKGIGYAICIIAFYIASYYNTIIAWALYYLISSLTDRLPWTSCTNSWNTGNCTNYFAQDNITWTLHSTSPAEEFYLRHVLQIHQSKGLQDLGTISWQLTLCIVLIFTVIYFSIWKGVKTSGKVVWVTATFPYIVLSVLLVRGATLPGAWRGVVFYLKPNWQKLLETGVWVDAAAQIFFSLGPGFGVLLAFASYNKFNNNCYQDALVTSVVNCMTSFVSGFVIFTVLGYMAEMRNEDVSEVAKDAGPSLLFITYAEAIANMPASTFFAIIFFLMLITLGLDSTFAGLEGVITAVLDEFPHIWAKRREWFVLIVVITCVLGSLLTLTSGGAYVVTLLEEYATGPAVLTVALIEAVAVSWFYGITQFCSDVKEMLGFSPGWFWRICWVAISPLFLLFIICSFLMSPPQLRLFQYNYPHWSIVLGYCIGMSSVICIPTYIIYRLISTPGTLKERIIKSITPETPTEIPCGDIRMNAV

Chain of Sodium-dependent dopamine transporter (P23977 whole entry): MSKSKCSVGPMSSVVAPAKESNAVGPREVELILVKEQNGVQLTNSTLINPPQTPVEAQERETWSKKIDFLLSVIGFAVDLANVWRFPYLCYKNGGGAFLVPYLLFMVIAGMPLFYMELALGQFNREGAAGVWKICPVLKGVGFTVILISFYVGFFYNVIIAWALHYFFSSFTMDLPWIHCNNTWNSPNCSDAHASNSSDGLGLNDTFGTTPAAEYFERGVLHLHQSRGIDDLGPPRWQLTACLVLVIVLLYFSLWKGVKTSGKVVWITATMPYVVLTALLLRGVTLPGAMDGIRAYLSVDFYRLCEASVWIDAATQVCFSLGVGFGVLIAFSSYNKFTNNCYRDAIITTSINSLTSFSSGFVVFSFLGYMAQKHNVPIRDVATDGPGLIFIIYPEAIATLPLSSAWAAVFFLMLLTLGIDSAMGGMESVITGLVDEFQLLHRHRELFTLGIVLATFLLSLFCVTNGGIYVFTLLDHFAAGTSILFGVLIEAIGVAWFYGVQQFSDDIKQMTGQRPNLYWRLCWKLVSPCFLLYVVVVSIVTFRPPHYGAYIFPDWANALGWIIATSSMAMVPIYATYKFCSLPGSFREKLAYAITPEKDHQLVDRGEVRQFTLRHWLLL

| SMILES | Ki [1] [nM] | Ki [2] [nM] | Ki [3] [nM] |
| --- | --- | --- | --- |
| CN1CCC(c2ccc(Cl)cc2)[C@H](C(=O)O)C1 (stereo not given in full) [CAS_8268] | 276 | 90 | 5900 |
| CN1CCC(c2ccc(Cl)cc2)[C@@H](C(=O)O)C1 (stereo partly drawn) [cis-CPCA, -] | 67 | 98 |  |
